Measured values published in patent publication US10092530B2, “Method for inhibiting melanogenesis and promoting collagen production and wound healing” (TCI Co., Ltd, priority 2015, dated 2018).

Columns and labels:
Type in all cases: cell-based
human dermal fibroblasts [1] = test: Wound repair/closure of an incised wound area in a culture of human dermal fibroblasts; conditions: for percentage of wound repair/closure relative to the CTL group: 18 hours
Protocol: (§1) Human dermal fibroblasts (CCD-966SK cells, former ATCC CRL-1881), a type of adherent skin cells, were cultured in minimum essential medium supplemented with 10% (v/v) fetal bovine serum (FBS), 0.37% (w/v) sodium bicarbonate, 0.1 mM non-essential amino acid solution (NEAA), 1 mM sodium pyruvate, 0.03% (w/v) […], 100 units/ml penicillin and 100 μg/ml streptomycin at 37° C. under humidified atmosphere (relative humidity of 80%) containing 5% CO2. During the culture, the medium was renewed every two days. When the cultured cells reached confluence and formed a monolayer, which was examined by an inverted microscope, a subculture was carried out.
Due to the importance of wound healing, the inventors of the present application studied the promoting effect of the compound of formula (I) on wound healing of skin in EXAMPLE 4. The following four groups were compared in this example: • (1) Control group (CTL group): creating an incised wound area in a culture of human dermal fibroblasts and then incubating and examining the culture for 18 hours; • (2) One dose-18 hours group (1X-18 group): creating an incised wound area in a culture of human dermal fibroblasts and adding one dose of the compound of the present invention to the culture; and then examining changes in the wound area of human dermal fibroblasts after an incubation of 18 hours, wherein the term “one dose” refers to 8.75 ng/mL of the compound of formula (I) in DMSO; • (3) Double dose-18 hours group (2X-18 group): creating an incised wound area in a culture of human dermal fibroblasts and adding one dose of the compound of the present invention to the culture; and then examining changes in the wound area of human dermal fibroblasts after an incubation of 18 hours, wherein the term “double dose” refers to 17.5 ng/mL of the compound of formula (I); and • (4) Fourfold dose-18 hours group (4X-18 group): creating an incised wound area in a culture of human dermal fibroblasts and adding one dose of the compound of the present invention to the culture; and then examining changes in the wound area of human dermal fibroblasts after an incubation of 18 hours, wherein the term “fourfold dose” refers to 35 ng/mL of the compound of formula (I).
According to FIG. 8, a constant number of fibrocytes (about 1-2×10^5 cells) were produced in each of the CTL, 1X-18, 2X-18, and 4X-18 groups to repair and close the wound at 18 hours after wounding.
In addition, a percentage of wound repair/closure in the wound area of human dermal fibroblasts was determined for the above four groups by analyzing the surface area change of the wound area in FIG. 8 using the software ImageJ. […]

MMP-9 gene expression = MMP-9 gene expression by RT-PCR in human dermal fibroblasts; conditions: 1X-24 group: 8.75 ng/mL, 24 hours
Protocol: as §1
Therefore, the inventors of the present application studied the inhibitory effect of the compound of formula (I) on MMP-9 gene expression in EXAMPLE 2. […]

[2] = test system: mouse melanoma cell line B16F10; test: Melanin quantification assay in mouse melanoma cell line B16F10; conditions: for decreased melanin content compared with the CTL group: 48 hours, B16F10
Protocol: Therefore, the inventors of the present application studied the inhibitory effect of the compound of formula (I) on MITF gene expression in EXAMPLE 3. The following five groups were compared in this example: • (1) Control group (CTL group): incubating a culture of human dermal fibroblasts for a predetermined time; • (2) One dose-24 hours group (1X-24 group): adding one dose of the compound of the present invention to a culture of human dermal fibroblasts and then examining the culture after an incubation of 24 hours, wherein the term “one dose” refers to 8.75 ng/mL of the compound of formula (I) in DMSO; • (3) One dose-48 hours group (1X-48 group): adding one dose of the compound of the present invention to a culture of human dermal fibroblasts and then examining the culture after an incubation of 48 hours; • (4) Double dose-24 hours group (2X-24 group): adding a double dose of the compound of the present invention to a culture of human dermal fibroblasts and then examining the culture after an incubation of 24 hours, wherein the term “double dose” refers to 17.5 ng/mL of the compound of formula (I); and • (5) Double dose-48 hours group (2X-48 group): adding a double dose of the compound of the present invention to a culture of human dermal fibroblasts and then examining the culture after an incubation of 48 hours.
In addition, a melanin quantification assay was performed to examine the change of melanin content in mouse melanoma cell line B16F10 (ATCC CRL-6475) upon addition of the compound of the present invention. The treatment of the cells was the same as described above. […] Thus, it is concluded that the compound at a concentration between 8 ng/ml and 18 ng/ml causes a decrease of at least 20% in melanin formation in mouse melanoma cells.

human dermal fibroblasts [3] = test: Collagen secretion assay (Sircol) in human dermal fibroblasts; conditions: for increase in collagen secretion compared with the CTL group: 24 hours
MITF gene expression = MITF gene expression by RT-PCR in human dermal fibroblasts; conditions: 2X-48 group: 17.5 ng/mL, 48 hours
Protocol: as §1
Therefore, the inventors of the present application studied the inhibitory effect of the compound of formula (I) on MITF gene expression in EXAMPLE 3. […]

C=C1CC[C@@H](C)C2C[C@@H](O)[C@@H](C(C)C(=O)O)CC12 (stereo partly drawn) [compound of formula (I)]
degree of repair/closure in the wound area compared with the CTL group (micrographs) (human dermal fibroblasts [1]; 1X-18, 2X-18 and 4X-18 groups (8.75, 17.5, 35 ng/mL), 18 hours after wounding): significantly higher degree of repair/closure
percentage of wound repair/closure relative to the CTL group (human dermal fibroblasts [1]; 1X-18 group: 8.75 ng/mL): 1.21 fold
percentage of wound repair/closure relative to the CTL group (human dermal fibroblasts [1]; 2X-18 group: 17.5 ng/mL): 1.4 fold
percentage of wound repair/closure relative to the CTL group (human dermal fibroblasts [1]; 4X-18 group: 35 ng/mL): 1.5 fold
inhibition of MMP-9 gene expression compared with the CTL group (MMP-9 gene expression): about 80%
decreased melanin content compared with the CTL group ([2]; 1X-48 group: 8.75 ng/mL): 20%
decreased melanin content compared with the CTL group ([2]; 2X-48 group: 17.5 ng/mL): 40%
decrease in melanin formation ([2]; concentration between 8 ng/ml and 18 ng/ml, mouse melanoma cells): at least 20%
increase in collagen secretion compared with the CTL group (human dermal fibroblasts [3]; 1X-24 group: 8.75 ng/mL): 20%
increase in collagen secretion compared with the CTL group (human dermal fibroblasts [3]; 2X-24 group: 17.5 ng/mL): 30%
increase in collagen secretion (human dermal fibroblasts [3]; concentration between 8 ng/ml and 18 ng/ml): at least 20%
inhibition of MITF gene expression compared with the CTL group (MITF gene expression): about 50%
